According to paper PMC4109680, “Identification and Preclinical Pharmacology of the γ-Secretase Modulator BMS-869780” (International Journal of Alzheimer's Disease, 2014):
Where two headings read alike, the source gives them in different places.

Assay: Plasma exposure in rat 4-day oral dosing experiment
Type: in vivo
Conditions: for AUC(0-t): read-out: AUC (0–24 h); for concentration at 4 day: oral, read-out: Terminal concentration day 4
Method: All experimental procedures with animals followed National Institutes of Health guidelines and were authorized by and in compliance with policies of the Bristol-Myers Squibb Animal Use and Care Committee. Mice and rats were housed with a 6:00 AM to 6:00 PM light/dark cycle and allowed free access to food and water. For 3xTg mice, BMS-869780 was dosed in three-month-old females by oral gavage at 6 mL/kg in vehicle consisting of 84% polyethylene glycol average molecular weight of 400 (PEG-400), 15% EtOH, and 1% Tween-80 (w/w/w). The compound was dissolved in EtOH and then diluted with PEG-400 and Tween, after which the vial was sealed, vortexed, and sonicated at 56°C for 1 hour. Animals were euthanized by asphyxiation in CO2. Blood was collected by cardiac puncture and placed into ethylene-diaminetetraacetic acid microtainer tubes for the preparation of plasma. The cerebellum was collected for the determination of compound concentration, and the remaining brain was separated into left and right halves before freezing in liquid nitrogen. For the rat time course study, 8- to 12-week-old female Sprague-Dawley rats were obtained from Charles River Laboratories (Wilmington, MA), BMS-869780 was dosed orally at 4 mL/kg, and brain and plasma samples were collected as described for the 3xTg mice. For the four day repeat dose rat study, BMS-869780 was given by oral gavage in vehicle consisting of PEG-400, PEG-200, D-α-tocopheryl polyethylene glycol succinate, Solutol HS 15, in the ratio 80 : 10 : 5 : 5 (w/w/w/w). Methods for the pharmacokinetics studies in rat, dog, and monkey are described below.
As a preliminary evaluation of safety in vivo, male and female rats were given 10, 30, and 100 mg/kg BMS-869780 orally once daily for 4 days. Endpoints included brain Aβ1-42, as described above (Figures 7(d) and 7(e)), plasma PK on day 1 and day 3 (Table 4), and histopathology for duodenum, liver, and kidney.

[1] = female, rat, plasma, po, 10 mg/kg, Female, Day 1
[2] = female, rat, plasma, po, 10 mg/kg, Female, Day 3
[3] = female, rat, plasma, po, 30 mg/kg, Female, Day 1
[4] = female, rat, plasma, po, 30 mg/kg, Female, Day 3
[5] = female, rat, plasma, po, 100 mg/kg, Female, Day 1
[6] = female, rat, plasma, po, 100 mg/kg, Female, Day 3
[7] = male, rat, plasma, po, 10 mg/kg, Male, Day 1
[8] = male, rat, plasma, po, 10 mg/kg, Male, Day 3
[9] = male, rat, plasma, po, 30 mg/kg, Male, Day 1
[10] = male, rat, plasma, po, 30 mg/kg, Male, Day 3
[11] = male, rat, plasma, po, 100 mg/kg, Male, Day 1
[12] = male, rat, plasma, po, 100 mg/kg, Male, Day 3

**Q.** With `COc1cc(Nc2nc3n(n2)CCCC[C@H]3c2ccc(F)cc2)ccc1-n1cnc(Cl)c1` [BMS-869780] as the compound, how does the “Terminal concentration day 4” value (100 mg/kg, Female) read?
**A.** The value was 13.7 (±0.9) μM.

**Q.** And the “AUC (0–24 h)” value (100 mg/kg, Female, Day 3)?
**A.** The value was 316.4 (±77.0) μM·h.

**Q.** And the “Terminal concentration day 4” value (100 mg/kg, Male)?
**A.** The value was 9.2 (±3.2) μM.

**Q.** What about the “change of exposure on repeat dosing” value (day 1 versus day 3) of the same compound?
**A.** The value was “no loss of exposure between day 1 and day 3”.

**Q.** And the Cmax [1]?
**A.** Its Cmax is 2.9 µM.

**Q.** And the Tmax [1]?
**A.** The Tmax was 7 h.

**Q.** And the AUC(0-t) [1]?
**A.** The AUC(0-t) was 41 µM·h.

**Q.** And the Cmax [2]?
**A.** Its Cmax is 2.6 µM.

**Q.** And the Tmax [2]?
**A.** The Tmax was 5 h.

**Q.** What about the AUC(0-t) [2] of the same compound?
**A.** The AUC(0-t) was 25 µM·h.

**Q.** And the Cmax [3]?
**A.** The Cmax was 8.2 µM.

**Q.** What about the Tmax [3] of the same compound?
**A.** The Tmax was 5 h.

**Q.** And the AUC(0-t) [3]?
**A.** The AUC(0-t) was 152 µM·h.

**Q.** And the Cmax [4]?
**A.** The Cmax was 14.4 µM.

**Q.** What about the Tmax [4] of the same compound?
**A.** The Tmax was 3 h.

**Q.** And the AUC(0-t) [4]?
**A.** Its AUC(0-t) is 255 µM·h.

**Q.** And the Cmax [5]?
**A.** The Cmax was 10.6 µM.

**Q.** And the Tmax [5]?
**A.** The Tmax was 24 h.

**Q.** And the AUC(0-t) [5]?
**A.** Its AUC(0-t) is 206 µM·h.

**Q.** And the Cmax [6]?
**A.** The Cmax was 15.5 µM.

**Q.** What about the Tmax [6] of the same compound?
**A.** The Tmax was 4 h.

**Q.** And the AUC(0-t) [6]?
**A.** The AUC(0-t) was 316 µM·h.

**Q.** And the exposures achieved (highest dose of 100 mg/kg)?
**A.** Its exposures achieved is greater than 200 µM·h.

**Q.** And the Cmax [7]?
**A.** The Cmax was 2 µM.

**Q.** And the Tmax [7]?
**A.** Its Tmax is 5 h.

**Q.** And the AUC(0-t) [7]?
**A.** The AUC(0-t) was 20.2 µM·h.

**Q.** And the Cmax [8]?
**A.** The Cmax was 1.9 µM.

**Q.** And the Tmax [8]?
**A.** Its Tmax is 5 h.

**Q.** What about the AUC(0-t) [8] of the same compound?
**A.** Its AUC(0-t) is 17.5 µM·h.

**Q.** And the Cmax [9]?
**A.** Its Cmax is 6.1 µM.

**Q.** And the Tmax [9]?
**A.** The Tmax was 8 h.

**Q.** And the AUC(0-t) [9]?
**A.** The AUC(0-t) was 95.2 µM·h.

**Q.** What about the Cmax [10] of the same compound?
**A.** Its Cmax is 10.4 µM.

**Q.** And the Tmax [10]?
**A.** Its Tmax is 3 h.

**Q.** And the AUC(0-t) [10]?
**A.** The AUC(0-t) was 129 µM·h.

**Q.** What about the Cmax [11] of the same compound?
**A.** Its Cmax is 7.7 µM.

**Q.** What about the Tmax [11] of the same compound?
**A.** Its Tmax is 19 h.

**Q.** What about the AUC(0-t) [11] of the same compound?
**A.** The AUC(0-t) was 168 µM·h.

**Q.** What about the Cmax [12] of the same compound?
**A.** The Cmax was 13.2 µM.

**Q.** And the Tmax [12]?
**A.** Its Tmax is 7 h.

**Q.** What about the AUC(0-t) [12] of the same compound?
**A.** The AUC(0-t) was 217 µM·h.

**Q.** And the concentration at 4 day (rat, plasma, 10 mg/kg, Female)?
**A.** The concentration at 4 day was 3 µM.

**Q.** What about the concentration at 4 day (rat, plasma, 10 mg/kg, Male) of the same compound?
**A.** Its concentration at 4 day is 2.4 µM.

**Q.** What about the concentration at 4 day (rat, plasma, 30 mg/kg, Female) of the same compound?
**A.** Its concentration at 4 day is 12 µM.

**Q.** What about the concentration at 4 day (rat, plasma, 30 mg/kg, Male) of the same compound?
**A.** The concentration at 4 day was 8.9 µM.

**Q.** And the AUC (rat, plasma, po, four daily doses of 10 mg/kg)?
**A.** The AUC was 17.5 µM·h.
